Literature values, collected in publication PMC8000448, “Inhibitory Effects of Schisandra Lignans on Cytochrome P450s and Uridine 5′-Diphospho-Glucuronosyl Transferases in Human Liver Microsomes” (Pharmaceutics, 2021).
pIC50, pKi: −log10 of the molar value. Like-named read-outs stand apart in the source and are kept apart here.

How the values were obtained:
recombinant CYP3A4 [1] = conditions: recombinant CYP3A4 isoform; read-out: IC50, CYP3A-mediated midazolam 1′-hydroxylation; cited from earlier work
CYP3A [2] = conditions: rats; cited from earlier work
recombinant CYP2C19 = test system: recombinant CYP2C19; design: method as in PMID 24855828; conditions: read-out: IC50, CYP2C19-catalyzed omeprazole hydroxylation; cited from earlier work
CYP3A [3] = conditions: read-out: Ki, CYP3A-mediated testosterone hydroxylation; cited from earlier work
CYP2D6 = test system: CYP2D6; design: method as in PMID 15342469; conditions: cited from earlier work
CYP2C9 = test system: CYP2C9; design: method as in PMID 15342469; conditions: cited from earlier work
CYP2C19 = test system: CYP2C19; design: method as in PMID 15342469; conditions: cited from earlier work
CYP1A2 = test system: CYP1A2; design: method as in PMID 15342469; conditions: cited from earlier work
recombinant CYP3A4 [4] = conditions: rCYP3A4, fluorescent substrate; cited from earlier work
CYP3A [5] = test system: CYP3A; design: method as in PMID 15342469; conditions: read-out: IC50, CYP3A-mediated testosterone hydroxylase activity; cited from earlier work

Compound | pIC50 (recombinant CYP3A4 [1]) | Plasma concentrations of midazolam (CYP3A [2]) | pIC50 (recombinant CYP2C19) | pKi (CYP3A [3]) | pIC50 (CYP2D6) | pIC50 (CYP2C9) | pIC50 (CYP2C19) | pIC50 (CYP1A2) | pIC50 (recombinant CYP3A4 [4]) | pIC50 (CYP3A [5])
COc1cc2c(c(OC)c1OC)-c1c(cc3c(c1OC)OCO3)[C@H](OC(=O)c1ccccc1)[C@@](C)(O)[C@@H](C)C2 [gomisin G, reference compound] | 6.72 |  |  |  |  |  |  |  |  | 
COc1cc2c(c(OC)c1OC)-c1c(cc(OC)c(OC)c1OC)C[C@H](C)[C@H](C)C2 [schisandrin A, reference compound] |  | markedly increases | 4.06 |  |  |  |  |  |  | 
gomisin A | 5.73 |  |  | 6.00 | < 5.00 | < 5.00 | < 5.00 | < 5.00 | 5.86 | 
gomisin B |  |  |  |  | < 5.00 | < 5.00 | < 5.00 | < 5.00 |  | 6.21 to 6.59
